From patent US11643438B2, “Antimicrobial peptides and methods of use” (priority 2018, dated 2023)
≈ marks a conversion by molar mass, not a printed value. Entries after “also recorded” stand apart in the source; their conditions may differ. Read-outs that look alike come from different tables or passages of the source. *1 amine or outer side, *2 acyl side, *3 side chain or, on linkers, in order; H or OH if unused. Where a SMILES comes first, the peptide text is derived from it. [ ]: non-standard residue; d: D form. X2 = CC[C@H](C)C[C@H](C)C[C@H](C)C[C@H](N[*:1])C(=O)[*:2]; X1 = CC[C@@H](C)[C@@H](O[*:1])C(=O)[*:2]; NMeVal(β-OH) = CN[C@H](C(=O)O)C(C)(C)O; aIle = CC[C@@H](C)[C@H](N)C(=O)O; NMeV = CN[C@H](C(=O)O)C(C)C; Sar = CNCC(=O)O

What was measured:
Alternaria brassicae = assay: MIC/MFC against phytopathogenic (endophytic) fungi
Alternaria brassicicola = assay: MIC/MFC against phytopathogenic (endophytic) fungi
Mycosphaerella populorum = assay: MIC/MFC against phytopathogenic (endophytic) fungi; details: Sphaerulina musiva
C. albicans SC5314 Flu^R = assay: Ex vivo model of fungal keratitis (porcine cornea); parameters: species or system Candida albicans
Alternaria tennuissiema = assay: MIC/MFC against phytopathogenic (endophytic) fungi
Candida albicans SC5314 = assay: Ex vivo model of fungal keratitis (porcine cornea)
P. glomerata = assay: MIC/MFC against phytopathogenic (endophytic) fungi
[1] = tested on: Aspergillus fumigatus NRRL5109; assay: Ex vivo model of fungal keratitis (porcine cornea); details: for effect of different doses on fungal growth: FIG. 10
[2] = Mammalian cell cytotoxicity assay (calcein/Hoechst); format: cell-based; details: human, read-out: LC50
Method: Cell cytotoxicity was tested against the human liver cancer cell line HepG2 and the HPV-immortalized ectocervical epithelium cell line Ect1/E6E7. The HepG2 cells were cultured in the EMEM medium supplemented with 5% FetalClone III and penicillin/streptomycin (5 Units/mL, 50 ug/mL). The Ect1/E6E7 cells were grown in the RPMI 1640 medium supplemented with 5% FetalClone III, EGF (10 ng/mL Novoprotein #C029), and penicillin/streptomycin (5 Units/mL, 50 ug/mL). For the assays, 5,000 HepG2 or Ect1/E6E7 cells were seeded into each well of a 96-well plate and allowed to attach overnight in a 37° C. humidified incubator. The next day, test compounds were diluted in DMSO, added to the wells at a final DMSO concentration of 0.5% and cells were incubated for an additional 48 hours. Cell viability was determined by the Calcein and Hoechst Assay on the Perkin Elmer Operetta. In each assay, 5 μL of the fluorescent dyes (40 μM calcein AM and 160 μM Hoechst 33342 in DMSO) and 25 μL PBS were added into each well. Plates were incubated for 30 minutes and then analyzed on the Operetta. The Harmony software was used to calculate the whole-cell area by finding all the Hoechst-labeled nuclei. The live and dead cells were assessed based on a threshold of the green calcein fluorescence. […]

Fusarium oxysporum = assay: MIC/MFC against phytopathogenic (endophytic) fungi

CC[C@H](C)C[C@H](C)C[C@H](C)C[C@@H]1NC(=O)[C@H](C(C)C)N(C)C(=O)[C@@H]([C@H](C)CC)OC(=O)[C@H](C(C)(C)O)N(C)C(=O)[C@H](CC(C)C)NC(=O)[C@H](C(C)C)N(C)C(=O)[C@H]([C@H](C)CC)NC(=O)[C@@H]2CCCN2C(=O)CN(C)C1=O [Compound 1, persephacin] (cyclo(L[NMeVal(β-OH)][X1][NMeV][X2][Sar]P[aIle][NMeV]))
MFC (Alternaria brassicae): 2.5 µM (≈ 2.69 µg/mL) | MIC (Alternaria brassicae): 1.25 µM (≈ 1.34 µg/mL) | MFC (Alternaria brassicicola): 20 µM (≈ 21.5 µg/mL) | MIC (Alternaria brassicicola): 5 µM (≈ 5.38 µg/mL) | MFC (Mycosphaerella populorum): 10 µM (≈ 10.8 µg/mL) | MIC (Mycosphaerella populorum): 2.5 µM (≈ 2.69 µg/mL) | CFU (C. albicans SC5314 Flu^R; C. albicans SC5314 Flu^R, 118A 0.1% (1 mg/ml), natamycin 5% (50 mg/ml), fluconazole 2% (20 mg/ml)): 0 CFU | effect of different doses on fungal growth (C. albicans SC5314 Flu^R; Candida albicans SC5314FluR, 50-1,000 μg/mL, FIG. 9): effective at reducing or eliminating the fungus | MFC (Alternaria tennuissiema): 10 µM (≈ 10.8 µg/mL) | MIC (Alternaria tennuissiema): 10 µM (≈ 10.8 µg/mL) | antifungal activity (fungal growth/infection), in words (Candida albicans SC5314; 0.1% 118A, 2% fluconazole, 5% natamycin, FIG. 11): inhibited the growth; also recorded: eliminated the fungus | effect of different doses on fungal growth (Candida albicans SC5314; 50-1,000 μg/mL, FIG. 8): effective at reducing or eliminating the fungus | CFU (Candida albicans SC5314; 118A 0.1% (1 mg/ml), natamycin 5% (50 mg/ml), fluconazole 2% (20 mg/ml)): 0 CFU | MFC (P. glomerata): 1.25 µM (≈ 1.34 µg/mL) | MIC (P. glomerata): 0.625 µM (≈ 0.672 µg/mL) | MIC (P. glomerata; P. glomerata, […], listed as Persephacin A): .625 µM (≈ 0.672 µg/mL) | effect of different doses on fungal growth ([1]; Aspergillus fumigatus NRRL 5109, 1,000 μg/mL): eliminating | antifungal activity (fungal growth/infection), in words ([1]; Aspergillus fumigatus NRRL 5109, 0.1% 118A, 2% fluconazole, 5% natamycin, FIG. 13): inhibited the growth; also recorded: eliminated the fungus | effect of different doses on fungal growth ([1]; Aspergillus fumigatus NRRL 5109, 50-250 μg/mL): effective at reducing | CFU ([1]; Aspergillus fumigatus NRRL5109, 118A 0.1% (1 mg/ml), natamycin 5% (50 mg/ml), fluconazole 2% (20 mg/ml)): 0 CFU | CC50 at 48 h ([2]; Ect1/E6E7 cells (HPV-immortalized ectocervical epithelium), Ect1/E6E7 cell line): 30 µM | CC50 at 48 h ([2]; HepG2 cells, HepG2 cell line): 30 µM | MFC (Fusarium oxysporum): 20 µM (≈ 21.5 µg/mL) | MIC (Fusarium oxysporum): 5 µM (≈ 5.38 µg/mL)
